Reference: patent US20140051650A1, “VAGINAL COMPOSITIONS BASED ON ALKYL POLYGLUCOSIDES” (EFFIK S.A., priority 2011, published 2014)

Columns and labels:
Type in all cases: cell-based
vaginal lactobacilli = experiment: Activity on vaginal lactobacilli compared with the pathogen strains; settings: lactobacilli versus G. vaginalis
Experimental: By comparison, the lactobacillus strains dominating in the physiological colonization of the vaginal mucosa typical in healthy women were also tested. Thus, such explorative activity was carried out on such strains with the aim of evaluating a selectivity of the compounds of the invention with respect to the pathogenic microorganisms with respect to the lactobacillus bacterial flora. Immediately after determining the value of the MIC for each substance, a volume equivalent to 50 μl was taken from each well and streaked on the surface of plates containing the solid medium. The plates were subsequently incubated at the conditions indicated for each microbial strain. After incubation at 37° C. for 24 hours, the number of colonies grown on the medium surface was counted thus determining the number of bacteria that survived after 24 hours of contact with the substance at the concentration present in the well. The MBC value defined as the lowest concentration of each substance capable of reducing the bacterial load by 99.9% in the previously defined assay conditions was determined through comparison between the number of bacteria that survived in each well and that of the bacterial inoculum deposited initially.

[1] = tested on: Candida albicans ATCC 10231; experiment: MIC against Candida albicans; settings: substance alone
Experimental: (§1) The Gardnerella vaginalis ATCC 14018 strain, the Neisseria gonorrhoeae ATCC 43069 strain and the Candida albicans ATCC 10231 strain were also used for the experiment.
(§2) The other assayed microbial strains were cultured in the liquid media and in the incubation conditions specified in table A, following the operating procedure described above.
(§3) The assay was carried out in 96-well microtitre plates. 50 μl of substance solution at the “mother” concentration alongside 50 μl of liquid medium at double concentration were deposited in the first well of each of the 8 rows while 50 μl of liquid medium at normal concentration were deposited in the remaining 11 wells. Starting from the first well of each row, 50 μl volumes were transferred from each well to the subsequent one 10 times, thus obtaining a series of 11 dilutions after doubling. The 12th well of each row was kept substance-free as a function of positive control of the bacterial growth.
(§4) Subsequently, 50 μl of diluted bacterial inoculum as specified previously were deposited in all wells of the plate, except for the 11th of each row. Only the liquid medium at single concentration but bacteria-free, was deposited in the 11th well, with the aim of providing negative control for each row. The described scheme was used for the assay with each of the assayed microbial strains.
After incubation at the conditions indicated regarding each micro-organism, the microtitre plates were examined to verify, in each well, the presence or absence of bacterial growth. The minimum inhibitory concentration is defined as the lowest concentration of the substance still capable of inhibiting bacterial growth i.e. preventing the liquid from becoming turbid within the well.

[2] = tested on: Gardnerella vaginalis ATCC 14018; experiment: MBC against Gardnerella vaginalis; settings: substance alone
Experimental: (§5) The Gardnerella vaginalis ATCC 14018 strain, the Neisseria gonorrhoeae ATCC 43069 strain and the Candida albicans ATCC 10231 strain were also used for the experiment. [table] The other assayed microbial strains were cultured in the liquid media and in the incubation conditions specified in table A, following the operating procedure described above. Immediately after determining the value of the MIC for each substance, a volume equivalent to 50 μl was taken from each well and streaked on the surface of plates containing the solid medium. The plates were subsequently incubated at the conditions indicated for each microbial strain. After incubation at 37° C. for 24 hours, the number of colonies grown on the medium surface was counted thus determining the number of bacteria that survived after 24 hours of contact with the substance at the concentration present in the well. The MBC value defined as the lowest concentration of each substance capable of reducing the bacterial load by 99.9% in the previously defined assay conditions was determined through comparison between the number of bacteria that survived in each well and that of the bacterial inoculum deposited initially.

[3] = tested on: Gardnerella vaginalis ATCC 14018; experiment: MIC against Gardnerella vaginalis; settings: substance alone
Experimental: as §1, §2, §3
as §4, with “strains. […]” for “strains.”

[4] = tested on: Candida albicans ATCC 10231; experiment: MBC against Candida albicans; settings: substance alone
Experimental: as §5

“lauryl glucoside/C12-C16 alkyl polyglucoside [Substance A2]” was tested, and the “MBC values in vaginal lactobacilli, times higher than those observed in G. vaginalis” value (vaginal lactobacilli) was “about 15 times”, the MIC [1] was 0.077% and the MBC [2] was 0.0048%. It also gave an MIC [3] of 0.0048% and an MBC [4] of 0.154%.
